Experiments:
[1] = system: HCT-8/E11+BM-MSC xenografts; experiment: s.c. xenografts of HCT-8/E11 cells with BM-MSC in Swiss nu/nu mice; assay type: in vivo
Experimental: Animal studies were approved by the Local Ethical Committee for Animal Experiments, Faculty of Medicine and Health Sciences, Ghent University, Belgium. Four-week-old female Swiss nu/nu mice (10 animals per group) (Charles River Laboratories, Brussels, Belgium) were inoculated subcutaneously (s.c.) with 10^6 CRC cells (HCT-8/E11, SW480 and HCT 116) either alone or combined with 2×10^6 BM-MSC suspended in 100 μl sterile PBS. To assess the effect of soluble factors on tumorigenesis, mice were inoculated s.c. with 10^6 cancer cells in 100 μl sterile CM derived from 2.5×10^6 BM-MSC, or control medium. For these experiments, intratumoral injection of the CM (50 μl) was performed every three days. […] Tumor volume was estimated by using the equation, V=0.4×a×b^2, where V is the volume, a is the length of the major axis of the tumor, and b is the length of its minor axis. he animals were sacrificed when the tumors were approximately 1-1.5 cm^3, in compliance with regulations for the use of vertebrate animals in research. Primary tumors were extracted, weighted and fixed in 4% buffered formol for 12 hours, followed by a wash with PBS. Fixed tumors were transferred to 70% ethanol until use. Tumors were embedded in paraffin, sectioned and stained with H&E. Immunohistochemistry (IHC) using TUNEL, anti-α-SMA (Biogenex), anti-vimentin and anti-Ki67 antibodies was performed on paraffin sections, using a NexES automated slide staining system (Ventana Medical Systems, Tucson, Ariz.). Cell proliferation (Ki67 positivity) was quantified as % of positive cancer cells per high power field averaged across 12 images from 2 primary tumors per cell line.

HCT-8/E11 cells [2] = experiment: Assessment of cell numbers (viable cells, serum-free); assay type: cell-based, human
Experimental: To assess the effect of rNRG-β1 or CM on cell numbers, a total of 9 wells of seeded cells were counted for each condition (triplicate samples×3 countings). First, 1×10^4 CRC cells were seeded on a 6-well plate in DMEM supplemented with 10% FCS. After 24 hours, cells were treated as indicated under serum-free conditions; medium was changed every 3 days. The total number of viable cells in each well was counted with a Countess automated cell counter (Invitrogen) every three days for 9 days; trypan blue staining was used for exclusion of dead cells.

HER3 = experiment: Western blot of Y1289 p-HER3 (HER3 activation) in HCT-8/E11 cells; assay type: cell-based, human; conditions: for decrease in CM^BM-MSC-induced HER3 activation (Y1289 p-HER3): HCT-8/E11, CM^BM-MSC 15 minutes, cetuximab 3 μM, lapatinib 1 μM, trastuzumab and pertuzumab 25 μg/ml
Experimental: (§1) Cells were harvested with Laemmli lysis buffer (0.125M Tris-HCl (pH=6.8), 10% glycerol, 2.3% sodium dodecyl sulfate [SDS]). Cell surface proteins were isolated by biotinylation (Pierce). For the detection of phosphorylated proteins, cells were grown at 70% confluence and treated for 15 minutes as indicated. Cells were harvested with NP-40 lysis buffer (1% Nonidet P-40 [NP-40][Sigma-Aldrich], 1% Triton X-100 [Bio-Rad] in phosphate-buffered saline [PBS]) and the following protease inhibitors: aprotinin (10 μg/mL), leupeptin (10 μg/mL) (ICN Biomedicals, Costa Mesa, Calif.), phenylmethylsulfonyl fluoride (1.72 mM), NaF (100 mM), NaVO3 (500 mM), and Na4P2O7 ([…]) (Sigma-Aldrich). Cell lysates (25 μg) and CM (20 μl) were suspended in Laemmli sample buffer and boiled for 5 minutes at 95° C. For immunoprecipitation, cells were harvested with NP-40 lysis buffer, and protease inhibitors. Anti-rabbit antibodies were covalently coupled to sheep anti-rabbit IgG dynabeads (Invitrogen) and then incubated for 2 hours at 4° C. with 500 μg of cell lysate or normal rabbit IgG antibody (R&D Systems) as a negative control. Immunoprecipitates were washed five times with lysis buffer, eluted with 100 μl of Laemmli lysis buffer, and boiled at 95° C. for 5 minutes. Samples were run on NuPAGE 4%-20% Bis-Tris gradient gels (Invitrogen), transferred to polyvinylidene fluoride membranes, blocked in 5% nonfat milk in PBS or 4% bovine serum albumin (BSA) in PBS for phosphorylated proteins with 0.5% Tween-20, and immunostained. Scanning densitometry was carried out with the Quantity One Program (Bio-Rad).

AKT = experiment: Western blot of S473 p-AKT (AKT activation) in HCT-8/E11 cells; assay type: cell-based, human; conditions: for reduction of AKT activation (S473 p-AKT) in CM^BM-MSC-treated cells: HCT-8/E11, CM^BM-MSC 15 minutes, cetuximab 3 μM, lapatinib 1 μM, trastuzumab and pertuzumab 25 μg/ml
Experimental: as §1

HCT-8/E11 cells [3] = experiment: Single cell collagen invasion assay, HCT-8/E11; assay type: cell-based, human; conditions: for CM^BM-MSC-induced invasion (invasion index) / CM^BM-MSC-induced morphological response (factor shape): cetuximab 3 μM, lapatinib 1 μM, trastuzumab and pertuzumab 25 μg/ml
Experimental: (§2) Collagen invasion assays were performed as described previously (45). Briefly, 1×10^5 CRC cells were seeded on type I collagen-coated 6-well plates and treated with CM derived from 5×10^5 BM-MSC or T-MC supplemented with DMEM 10% FBS and antibiotics as indicated.
(§3) Morphology and invasion into collagen was analysed after 24 hours and quantified by means of the factor shape ([perimeter]^2/[4πarea]) and invasion index. The number of invasive and noninvasive cells was counted in 10 randomly selected microscopic fields with a 20× objective and 10× eye piece by two blinded observers using an inverted phase-contrast microscope (DMI 3000B; Leica, Wetzlar, Germany). The invasion index was calculated as the ratio of the number of cells that invaded the gel divided by the total number of cells counted in each field. Collagen matrices were fixed in 3% paraformaldehyde for 10 minutes and phalloidin-TRITC (Sigma-Aldrich) staining as described (45). Cells were imaged with a Zeiss 510 META confocal laser-scanning microscope (Carl Zeiss, Micro-imaging Inc., Heidelberg, Germany) using a 488 argon and a 543 HeNe laser. Images were acquired using a Plan Apochromat 63×/1.4 oil DIC or a Plan Apochromat 100×/1.4 oil DIC objective. All the images shown are collapsed z-stacks.

HER3 (human) = HER3 (human) (UniProt P21860); experiment: cell-based or functional assay
HCT 116 cells = experiment: Single cell collagen invasion assay, HCT 116; assay type: cell-based, human; conditions: HCT 116, 10 ng/ml, 24 hours, P=0.007
Experimental: as §2, §3

PARP = experiment: Western blot of PARP cleavage in HCT 116; assay type: cell-based, human; conditions: HCT 116, 10 ng/ml, 6 hours, compared to controls
Experimental: as §1, with “Samples were run on NuPAGE 4%-20% Bis-Tris gradient gels (Invitrogen), transferred to polyvinylidene fluoride membranes, blocked in 5% nonfat milk in PBS or 4% bovine serum albumin (BSA) in PBS for phosphorylated proteins with 0.5% Tween-20, and immunostained.” left out

BAX/BCL-2 = experiment: Western blot of BAX and BCL-2 expression in HCT-8/E11; assay type: cell-based, human; conditions: HCT-8/E11, 10 ng/ml, 6 hours
Experimental: as §1, with “Samples were run on NuPAGE 4%-20% Bis-Tris gradient gels (Invitrogen), transferred to polyvinylidene fluoride membranes, blocked in 5% nonfat milk in PBS or 4% bovine serum albumin (BSA) in PBS for phosphorylated proteins with 0.5% Tween-20, and immunostained.” left out

BAD = experiment: Western blot of S136 p-BAD in HCT-8/E11; assay type: cell-based, human; conditions: rNRG-β1-treated HCT-8/E11
Experimental: as §1, with “Samples were run on NuPAGE 4%-20% Bis-Tris gradient gels (Invitrogen), transferred to polyvinylidene fluoride membranes, blocked in 5% nonfat milk in PBS or 4% bovine serum albumin (BSA) in PBS for phosphorylated proteins with 0.5% Tween-20, and immunostained.” left out

HER2 = experiment: Western blot of Y1196 and Y1248 p-HER2 in HCT-8/E11; assay type: cell-based, human; conditions: 10 ng/ml, 15 minutes
Experimental: as §1, with “Samples were run on NuPAGE 4%-20% Bis-Tris gradient gels (Invitrogen), transferred to polyvinylidene fluoride membranes, blocked in 5% nonfat milk in PBS or 4% bovine serum albumin (BSA) in PBS for phosphorylated proteins with 0.5% Tween-20, and immunostained.” left out

SW480 cells = experiment: Single cell collagen invasion assay, SW480; assay type: cell-based, human; conditions: SW480, 10 ng/ml, 24 hours, P=0.003
Experimental: as §2, §3

In the case of “pertuzumab: recombinant, humanized mAb that specifically binds HER2 and prevents HER2 homo- and HER2/HER3 heterodimerisation”, the “BM-MSC-enhanced tumorigenesis of HCT-8/E11 cells” value ([1]; 600 μg/mouse i.p.) is reported as “significantly delayed”, the tumor weight ([1]; 600 μg/mouse i.p. three times a week, P=0.004) is reported as “decreased” and the tumor volume ([1]; 600 μg/mouse i.p. three times a week, P=0.035) is reported as “reduced”. The “Ki67 proliferation index, difference vehicle vs treatment” value ([1]; 95% CI −4.8 to 15.2, P=0.276) was 5.2, the Ki67 proliferation index ([1]; viable areas of resected xenografts) was “did not significantly affect” and the “CM^BM-MSC-induced CRC cell survival (total number of viable cells)” value (HCT-8/E11 cells [2]; pertuzumab 25 μg/ml, HCT-8/E11) was “significantly decreased”. The “number of viable cells under control conditions” value (HCT-8/E11 cells [2]; pertuzumab 25 μg/ml, no CM) was “no statistically significant effect”, the “CM^T-MC-increased growth of HCT-8/E11 cells (trophic effect)” value (HCT-8/E11 cells [2]; pertuzumab 25 μg/ml, serum-free) was “blocked” and the “decrease in CM^BM-MSC-induced HER3 activation (Y1289 p-HER3)” value (HER3) was 67%. The “reduction of AKT activation (S473 p-AKT) in CM^BM-MSC-treated cells” value (AKT) was 79%, the “CM^T-MC-increased invasion” value (HCT-8/E11 cells [3]; HCT-8/E11, 24 hours, pertuzumab 25 μg/ml) was “partly inhibited” and the “CM^BM-MSC-induced invasion (invasion index)” value (HCT-8/E11 cells [3]) was “blocked”. For the same molecule, the “CM^BM-MSC-induced morphological response (factor shape)” value (HCT-8/E11 cells [3]) was “blocked”.

`Cn1ncc(Cl)c1-c1cc(C(=O)N[C@H](CN)Cc2ccc(F)c(F)c2)oc1Cl` [GSK2141795] was tested, and the “CM^BM-MSC-induced invasion” value (HCT-8/E11 cells [3]; 0.1 μM, 24 hours) was “able to block” and the “CM^BM-MSC-induced invasion” value (HCT-8/E11 cells [3]; 1 μM, 24 hours) was “able to block”.

`CS(=O)(=O)CCNCc1ccc(-c2ccc3ncnc(Nc4ccc(OCc5cccc(F)c5)c(Cl)c4)c3c2)o1` [lapatinib] was tested, and the “decrease in CM^BM-MSC-induced HER3 activation (Y1289 p-HER3)” value (HER3) was 72%, the “reduction of AKT activation (S473 p-AKT) in CM^BM-MSC-treated cells” value (AKT) was 82% and the “CM^BM-MSC-induced invasion (invasion index)” value (HCT-8/E11 cells [3]) was “blocked”. For the same molecule, the “CM^BM-MSC-induced morphological response (factor shape)” value (HCT-8/E11 cells [3]) was “blocked”.

“Recombinant human NRG-β1 EGF domain (from UniProt Q02297 177-241) (ligand)” gave a Y1289 p-HER3 in HCT-8/E11 cells, Western blot, 15 minutes (HER3 (human)) of 0.25 ng/mL.

B1: rNRG-β1: Recombinant human NRG-β1 EGF domain supplied by R&D Systems (protein)
chain: SHLVKCAEKEKTFCVNGGECFMVKDLSNPSRYLCKCPNEFTGDRCQNYVMASFYKHLGIEFMEAE
With B1 the “morphological changes and invasion into a collagen matrix” value (HCT 116 cells) was “induced”, the PARP cleavage (PARP) was “reduced” and the BAX/BCL-2 ratio (BAX/BCL-2) was “reduced”. The “levels of S136 p-BAD” value (BAD) was “higher levels”, the HCT-8/E11 cell number (HCT-8/E11 cells [2]; 0.1, 1, 10 ng/ml, serum-free, P=0.002 at 10 ng/ml) was “dose-dependent increase” and the “concentration at which phosphorylation of HER3 was significant” value (HER3; HCT-8/E11, 15 minutes) was 0.25 ng/mL. The “levels of S473 p-AKT” value (AKT; rNRG-β1-treated HCT-8/E11) was “higher levels”, the “morphological changes and invasion into a collagen matrix” value (HCT-8/E11 cells [3]; HCT-8/E11, 10 ng/ml, 24 hours, P=0.049) was “induced” and the HER2 activation (HER2) was “induced HER2 activation”. The “morphological changes and invasion into a collagen matrix” value (SW480 cells) was “induced”.

Reference: patent publication US9279812B2, “Neuregulin-1-based prognosis and therapeutic stratification of colorectal cancer” (UNIVERSITEIT GENT, priority 2011, dated 2016)
